From paper PMC9130233, “An inhibitor of RORγ for chronic pulmonary obstructive disease treatment” (Scientific Reports, 2022)

What was measured:
[1] = tested on: IL-17 in peritoneal macrophages; experiment: IL-17 release, mouse peritoneal macrophages, LPS; format: cell-based; conditions: Peritoneal macrophage, n = 2, read-out: IC50, IL-17 inhibition
Procedure: The peritoneal neutrophils or macrophages were isolated from C57BL/6 male mice or BALB/c female mice (6–8 wks; 18–22 g) injected with 3% or 4% thioglycollate broth. After 4 h or 4 days, RPMI medium was injected into the peritoneal cavity of mouse and peritoneal lavage was collected. The lavage was pooled and spun at 800 rpm for 10 min. The pellet was re-suspended in 1X Gey’s solution for 5 min followed by PBS wash. In case of neutrophils, the isolated cells were seeded in 48 well plate for 1.5 h. After 1.5 h, the supernatant containing peritoneal neutrophils were collected and centrifuged at 2000 rpm for 10 min and the pellet were re-suspended in 2% RPMI. In case of isolated peritoneal macrophages, the cells were seeded in 48 well plate for 3–4 h followed by PBS wash. Both the neutrophils and macrophages were treated with PCCR-1 in 2% RPMI for 1 h followed by stimulation with 10 µg/ml or 5 µg/ml of LPS for 18 h or 24 h. The supernatant collected for IL-17 estimation by ELISA.

Kinases (~ 40 in no) = experiment: Kinase panel (~ 40); format: biochemical; design: key: NSE No significant effect; V wk very weak (very low-level agonist activity seen with mPPARγ); conditions: at 10 µM
Text: (§1) Based on the homology of the ligand binding domains, 3 different isoforms of ROR (hRORα, hRORβ and hRORγ) are reported. Small variations in the LBD regions possibly lead to differences in competitive binding between the nuclear receptors of the ROR isoforms (Fig. 1b). Similar to the assessment of RORγ binding assay, TR-FRET binding assays were also used to assess the affinity of PCCR-1 for other ROR isoforms. […] This was reconfirmed in cellular functional assays for the selected isoforms and nuclear receptors using Gal4 DBD with luciferase reporter system from Indigo (PA, USA). […] In addition, both cellular agonist and antagonist effects as well as for enzyme activity were evaluated with a known reference compound for each target, using a radiolabeled method (Eurofins Cerep, France, Table 1).

[2] = tested on: Th1 (IL-2 and IFN-γ) and Th2 (IL-4, IL-13 and IL-10) dependent cytokines in hPBMCs; experiment: Th1 and Th2 cytokine release, human PBMC, TCR activating conditions; format: cell-based; conditions: hPBMC, even at 10 µM
Procedure: An increase in the levels of Th17 dependent cytokine in the peripheral blood of COPD patients as compared to the Th1 and Th2 dependent cytokines has been well documented in a subset of COPD patients. A comparative study was performed under TCR activating conditions to evaluate the potencies of PCCR-1 for inhibition across Th1, Th2 and Th17 dependent cytokines using hPBMCs.
Human whole blood from healthy subjects were procured from Clinical Research Unit, Sanpada. Clinical Research Center Glenmark (Plot No. D, 508, Turbhe, TTC Industrial Area, MIDC, Sanpada, Navi Mumbai, Maharashtra 400705, India). PBMCs were isolated using heparinized blood with Ficoll Histopaque. Briefly, the cells were seeded in 96-well plate pre-coated with human anti-CD3 mAb (10 µg/mL), post 30 min of compound treatment cells were stimulated with human anti-CD28 mAb (2 µg/mL). After 72 h of culture, the supernatant was collected for Th1/Th2 cytokines; IFN-γ, IL-2, IL-4 and IL-10 and measured by ELISA. For Th17 polarization assay, the following cytokine cocktail was used: IL-1β (10 ng/ml), IL-23(10 ng/ml), IL-6 (50 ng/ml), TGF-β1 (3 ng/ml), IL-2 (20U/ml) and supernatants were used for measuring IL-17 and IL-22 by ELISA.

[3] = Single dose intranasal PK study in mice; format: in vivo, mouse
Procedure: A single dose intranasal PK study of PCCR-1 was conducted in male C57 mice at 20 and 50 µg/animal dose. The formulation was prepared in saline with 0.1% v/v tween-80 as the wetting agent. Animals were anesthetized briefly using gaseous isoflurane and oxygen mixture and a 40 µL of the formulation was instilled into both the nostrils (20 µL each) once the animal reached a regular breathing pattern and at pre-determined time points (0.25 h, 0.5 h, 1 h, 2 h, 4 h, 8 h and 24 h), approximately 0.3 mL of blood samples were collected using retro-orbital puncture in suitable anticoagulant (K3 EDTA). The animals were immediately sacrificed and lung was isolated. Blood samples were centrifuged (3000 rpm, 5 min) and plasma was harvested. Lung samples were homogenized in PBS buffer (pH 7.4) and centrifuged to collect the supernatant. Both plasma and lung samples were extracted using methyl t-butyl ether, mixed and centrifuged. The supernatant samples obtained after centrifugation were dried and reconstituted with acetonitrile-ammonium acetate buffer (90:10). The samples were mixed and analyzed in LCMS/MS for the analyte concentrations. Concentration vs time values were subjected to non-compartmental analysis using Phoenix WinNonlin® (Version 6.4) to estimate the appropriate pharmacokinetics parameters.

human RORγt = target: T1, human RORγt (Homo sapiens, UniProt P51449); experiment: RORγ transactivation assay in transfected HEK293 cells; format: cell-based; conditions: HEK293, n = 4; read-out: potency, inhibition of human RORγt in transactivation assay
T1 construct: Gal4-DBD human RORγt hinge LBD/pcDNA 3.1; expressed in transfected cells; host or cells: HEK293
T1 sequence (P51449 97-518): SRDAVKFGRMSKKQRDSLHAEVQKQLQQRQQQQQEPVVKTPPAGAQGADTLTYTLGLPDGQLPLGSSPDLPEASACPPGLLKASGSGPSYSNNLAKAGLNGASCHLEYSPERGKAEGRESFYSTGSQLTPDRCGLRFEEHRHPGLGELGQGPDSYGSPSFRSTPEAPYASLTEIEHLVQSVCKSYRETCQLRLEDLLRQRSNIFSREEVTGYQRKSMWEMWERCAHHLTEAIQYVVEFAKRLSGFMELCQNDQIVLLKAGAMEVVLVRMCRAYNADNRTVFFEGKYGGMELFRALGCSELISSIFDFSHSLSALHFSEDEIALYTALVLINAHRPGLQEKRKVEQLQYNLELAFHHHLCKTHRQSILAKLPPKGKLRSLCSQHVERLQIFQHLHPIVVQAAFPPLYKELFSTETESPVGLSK
Procedure: For RORg transactivation assay the HEK293 cells were seeded in 100 mm dish and transfected with 4.5 µg total DNA (2.25 µg of pGL4.31 Luc2/GAL4-UAS hygro and 2.25 µg Gal4-DBD human RORγt hinge LBD/pcDNA 3.1 and 0.112 µg of pRL-CMV using Effectene transfection reagent (Qiagen). After 16–20 h post transfection, cells were reseeded at the density of 0.05 M cells per well of 96 well plate in DMEM high glucose containing 2% charcoal stripped serum. 4–6 h post seeding, PCCR-1 treatment was given for 24 h, followed by cells lysis with 1X Passive Lysis buffer of Dual luciferase kit (Promega). The signal was detected after addition of stop and glo reagent of the kit in luminescence mode.

FXR = tested on: T2, FXR; experiment: TR-FRET selectivity binding assay, FXR
T2 construct: purchased Invitrogen
Text: as §1
For selectivity, the ROR isoforms RORα, FXR, LXRα, LXRβ, RXR, RARα were incubated with compound for 60 min at 22 °C followed by detection mix containing respective agonist (All trans retinoic acid for RARα, T0901317 for LXRα, LXRβ, 9-cis Retinoic acid for RXR, GW-4064 for FXR) and coactivator peptide (FD22 for RORα, PGC1α for RXR, RARα, TRAP220 for LXRα, LXRβ, SRC2-2 for FXR) and Tb-anti GST antibody prepared in assay buffer were added into a 384-well white plate. Reading taken after overnight incubation and the data analysis done as per the protocol mentioned in RORγt-LBD and co-activator ligand binding assay.

With CCn1c(C(C)(C)Oc2ccc(F)cc2F)nc2cc(NC(=O)Cc3ccc(S(=O)(=O)CC)cc3)ccc21 [PCCR-1] the IC50 [1] was 1390 nM, the “Kinases (~ 40 in no)” value (Kinases (~ 40 in no)) was “NSE at 10 µM” and the “inhibition of Th1 (IL-2 and IFN-γ) and Th2 (IL-4, IL-13 and IL-10) dependent cytokines” value [2] was “did not show significant inhibition”. For the same compound, the “quantifiable levels in lungs, time post dose” value [3] was “up to 24 h”, the “mean lung to plasma AUClast ratio” value ([3]; both doses (20 and 50 µg)) was over 1000 and the “time of peak lung concentrations post dose” value ([3]; both doses (20 and 50 µg)) was 2 to 4 h. For the same compound, the Kp ([3]; male, C57, mouse, lung/plasma, inhaled or intranasal, 50 ug, both doses (20 and 50 µg), read-out: mean lung to plasma Cmax ratio) was over 1000, the IC50 (human RORγt) was 111 nM and the “% Inhibition FXR” value (FXR; 1 µM) was 21.45%. The “% Inhibition FXR” value (FXR; 10 µM) was 19.81% and the “Fold over hRORγ, FXR” value (FXR; vs RORg IC50 31.87 nM) was over 313.7 fold.
